These results are taken from patent US20140288074A1, “FUNGICIDAL PYRAZOLES” (E I DU PONT DE NEMOURS AND COMPANY, priority 2013, published 2014).

Data set [1] relates to Puccinia recondita f. sp. tritici. The data set can be described thus: Test F: preventive spray on wheat seedlings, wheat leaf rust, visual disease rating. Format: in vivo. The conditions noted are these: 200 ppm test suspension, Puccinia recondita f. sp. tritici inoculated the day after spraying; for pest or weed control at 200 ppm: 168 h. How it is done:
General protocol for preparing test suspensions for Tests A-G: the test compounds were first dissolved in acetone in an amount equal to 3% of the final volume and then suspended at the desired concentration (in ppm) in acetone and purified water (50/50 mix by volume) containing 250 ppm of the surfactant Trem® 014 (polyhydric alcohol esters). The resulting test suspensions were then used in Tests A-G. Each test was conducted in triplicate, and the results were averaged. Spraying a 200 ppm test suspension to the point of run-off on the test plants was the equivalent of a rate of 800 g/ha. Unless otherwise indicated, the rating values indicate a 200 ppm test suspension was used. (An asterisk “*” next to the rating value indicates a 40 ppm test suspension was used.) The test suspension was sprayed to the point of run-off on wheat seedlings. The following day the seedlings were inoculated with a spore suspension of Puccinia recondita f. sp. tritici (the causal agent of wheat leaf rust) and incubated in a saturated atmosphere at 20° C. for 24 h, and then moved to a growth chamber at 20° C. for 6 days, after which time visual disease ratings were made. Results for Tests A-G are given in Table A. In the Table, a rating of 100 indicates 100% disease control and a rating of 0 indicates no disease control (relative to the controls). A hyphen (-) indicates no test results.

A further data set relates to Botrytis cinerea. The data set can be described thus: Test A: preventive spray on tomato seedlings, tomato Botrytis, visual disease rating. To be noted: 200 ppm test suspension, Botrytis cinerea inoculated the day after spraying. In kind it is in vivo. How it is done: General protocol for preparing test suspensions for Tests A-G: the test compounds were first dissolved in acetone in an amount equal to 3% of the final volume and then suspended at the desired concentration (in ppm) in acetone and purified water (50/50 mix by volume) containing 250 ppm of the surfactant Trem® 014 (polyhydric alcohol esters). The resulting test suspensions were then used in Tests A-G. Each test was conducted in triplicate, and the results were averaged. Spraying a 200 ppm test suspension to the point of run-off on the test plants was the equivalent of a rate of 800 g/ha. Unless otherwise indicated, the rating values indicate a 200 ppm test suspension was used. (An asterisk “*” next to the rating value indicates a 40 ppm test suspension was used.) The test suspension was sprayed to the point of run-off on tomato seedlings. The following day the seedlings were inoculated with a spore suspension of Botrytis cinerea (the causal agent of tomato Botrytis) and incubated in saturated atmosphere at 20° C. for 48 h, and then moved to a growth chamber at 24° C. for 3 additional days, after which time visual disease ratings were made. Results for Tests A-G are given in Table A. In the Table, a rating of 100 indicates 100% disease control and a rating of 0 indicates no disease control (relative to the controls). A hyphen (-) indicates no test results.

In data set [2] the test system is Blumeria graminis f. sp. tritici. The data set can be described thus: Test G: preventive spray on wheat seedlings, wheat powdery mildew, visual disease rating.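 For all read-outs here: rated 8 days after spore dust inoculation at 20 °C.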 The conditions noted are these: 200 ppm test suspension, Blumeria graminis f. sp. tritici inoculated the day after spraying; for pest or weed control at 200 ppm: 192 h. Format: in vivo. How it is done:
General protocol for preparing test suspensions for Tests A-G: the test compounds were first dissolved in acetone in an amount equal to 3% of the final volume and then suspended at the desired concentration (in ppm) in acetone and purified water (50/50 mix by volume) containing 250 ppm of the surfactant Trem® 014 (polyhydric alcohol esters). The resulting test suspensions were then used in Tests A-G. Each test was conducted in triplicate, and the results were averaged. Spraying a 200 ppm test suspension to the point of run-off on the test plants was the equivalent of a rate of 800 g/ha. Unless otherwise indicated, the rating values indicate a 200 ppm test suspension was used. (An asterisk “*” next to the rating value indicates a 40 ppm test suspension was used.) The test suspension was sprayed to the point of run-off on wheat seedlings. The following day the seedlings were inoculated with a spore dust of Blumeria graminis f. sp. tritici (also known as Erysiphe graminis f. sp. tritici, the causal agent of wheat powdery mildew) and incubated in a growth chamber at 20° C. for 8 days, after which time visual disease ratings were made. Results for Tests A-G are given in Table A. In the Table, a rating of 100 indicates 100% disease control and a rating of 0 indicates no disease control (relative to the controls). A hyphen (-) indicates no test results.

For a further data set, the system named is Septoria nodorum. Kind of data set: Test C: preventive spray on wheat seedlings, Septoria glume blotch, visual disease rating. Format: in vivo. To be noted: 200 ppm test suspension, Septoria nodorum inoculated the day after spraying; for pest or weed control at 200 ppm: Parastagonospora nodorum, 264 h. Here is the method:
General protocol for preparing test suspensions for Tests A-G: the test compounds were first dissolved in acetone in an amount equal to 3% of the final volume and then suspended at the desired concentration (in ppm) in acetone and purified water (50/50 mix by volume) containing 250 ppm of the surfactant Trem® 014 (polyhydric alcohol esters). The resulting test suspensions were then used in Tests A-G. Each test was conducted in triplicate, and the results were averaged. Spraying a 200 ppm test suspension to the point of run-off on the test plants was the equivalent of a rate of 800 g/ha. Unless otherwise indicated, the rating values indicate a 200 ppm test suspension was used. (An asterisk “*” next to the rating value indicates a 40 ppm test suspension was used.) The test suspension was sprayed to the point of run-off on wheat seedlings. The following day the seedlings were inoculated with a spore suspension of Septoria nodorum (the causal agent of Septoria glume blotch) and incubated in a saturated atmosphere at 24° C. for 48 h, and then moved to a growth chamber at 20° C. for 9 days, after which time visual disease ratings were made. Results for Tests A-G are given in Table A. In the Table, a rating of 100 indicates 100% disease control and a rating of 0 indicates no disease control (relative to the controls). A hyphen (-) indicates no test results.

In the next data set the test system is Septoria tritici. Kind of data set: Test D: preventive spray on wheat seedlings, wheat leaf blotch, visual disease rating. Format: in vivo. The conditions noted are these: 200 ppm test suspension, Septoria tritici inoculated the day after spraying; for pest or weed control at 200 ppm: Zymoseptoria tritici, 504 h. Here is the method: General protocol for preparing test suspensions for Tests A-G: the test compounds were first dissolved in acetone in an amount equal to 3% of the final volume and then suspended at the desired concentration (in ppm) in acetone and purified water (50/50 mix by volume) containing 250 ppm of the surfactant Trem® 014 (polyhydric alcohol esters). The resulting test suspensions were then used in Tests A-G. Each test was conducted in triplicate, and the results were averaged. Spraying a 200 ppm test suspension to the point of run-off on the test plants was the equivalent of a rate of 800 g/ha. Unless otherwise indicated, the rating values indicate a 200 ppm test suspension was used. (An asterisk “*” next to the rating value indicates a 40 ppm test suspension was used.) The test suspension was sprayed to the point of run-off on wheat seedlings. The following day the seedlings were inoculated with a spore suspension of Septoria tritici (the causal agent of wheat leaf blotch) and incubated in saturated atmosphere at 24° C. for 48 h. and then the seedlings were moved to a growth chamber at 20° C. for 19 additional days, after which time visual disease ratings were made. Results for Tests A-G are given in Table A. In the Table, a rating of 100 indicates 100% disease control and a rating of 0 indicates no disease control (relative to the controls). A hyphen (-) indicates no test results.

The next data set concerns Alternaria solani. The data set can be described thus: Test B: preventive spray on tomato seedlings, tomato early blight, visual disease rating. In kind it is in vivo. To be noted: 200 ppm test suspension, Alternaria solani inoculated the day after spraying. Here is the method:
General protocol for preparing test suspensions for Tests A-G: the test compounds were first dissolved in acetone in an amount equal to 3% of the final volume and then suspended at the desired concentration (in ppm) in acetone and purified water (50/50 mix by volume) containing 250 ppm of the surfactant Trem® 014 (polyhydric alcohol esters). The resulting test suspensions were then used in Tests A-G. Each test was conducted in triplicate, and the results were averaged. Spraying a 200 ppm test suspension to the point of run-off on the test plants was the equivalent of a rate of 800 g/ha. Unless otherwise indicated, the rating values indicate a 200 ppm test suspension was used. (An asterisk “*” next to the rating value indicates a 40 ppm test suspension was used.) The test suspension was sprayed to the point of run-off on tomato seedlings. The following day the seedlings were inoculated with a spore suspension of Alternaria solani (the causal agent of tomato early blight) and incubated in a saturated atmosphere at 27° C. for 48 h, and then moved to a growth chamber at 20° C. for 5 days, after which time visual disease ratings were made. Results for Tests A-G are given in Table A. In the Table, a rating of 100 indicates 100% disease control and a rating of 0 indicates no disease control (relative to the controls). A hyphen (-) indicates no test results.

The subject of data set [3] is Puccinia recondita f. sp. tritici. The data set can be described thus: Test E: spray after inoculation of wheat seedlings, wheat leaf rust, visual disease rating. The conditions noted are these: 200 ppm test suspension, sprayed after inoculation with Puccinia recondita f. sp. tritici. In kind it is in vivo. How it is done: General protocol for preparing test suspensions for Tests A-G: the test compounds were first dissolved in acetone in an amount equal to 3% of the final volume and then suspended at the desired concentration (in ppm) in acetone and purified water (50/50 mix by volume) containing 250 ppm of the surfactant Trem® 014 (polyhydric alcohol esters). The resulting test suspensions were then used in Tests A-G. Each test was conducted in triplicate, and the results were averaged. Spraying a 200 ppm test suspension to the point of run-off on the test plants was the equivalent of a rate of 800 g/ha. Unless otherwise indicated, the rating values indicate a 200 ppm test suspension was used. (An asterisk “*” next to the rating value indicates a 40 ppm test suspension was used.) Wheat seedlings were inoculated with a spore suspension of Puccinia recondita f. sp. tritici (the causal agent of wheat leaf rust) and incubated in a saturated atmosphere at 20° C. for 24 h, and then moved to a growth chamber at 20° C. for 2 days. At the end of this time the, the test suspension was sprayed to the point of run-off on the wheat seedlings, and then the seedlings were moved back to the growth chamber at 20° C. for 4 days. Upon removal, visual disease ratings were made. Results for Tests A-G are given in Table A. In the Table, a rating of 100 indicates 100% disease control and a rating of 0 indicates no disease control (relative to the controls). A hyphen (-) indicates no test results.

For the molecule `Cc1nn(C)c(NC(C)C)c1-c1ccc(F)cc1F` [Compound 1], in data set [1], the “Test F rating (disease control)” value is 0%. In the data set on Botrytis cinerea, the “Test A rating (disease control)” value is listed as 65%. Further, the “Test G rating (disease control)” value in data set [2] is reported as 0%. In the data set with Septoria nodorum, the “Test C rating (disease control)” value is given as 0%. The “Test D rating (disease control)” value in the data set with Septoria tritici stood at 0%. In addition, the “Test B rating (disease control)” value with Alternaria solani is listed as 0%.
As a reminder, the pest or weed control is how far the test organism was held down. As for `Cc1nn(C)c(C(O)C2CCCCC2)c1-c1c(F)cccc1Cl` (stereo not drawn) [Compound 16, 4-(2-chloro-6-fluorophenyl)-α-cyclohexyl-1,3-dimethyl-1H-pyrazole-5-methanol], the pest or weed control at 200 ppm in data set [1] amounted to 79%; in data set [2], 100%; in the data set on Septoria nodorum, 0%; in the data set with Septoria tritici, 100%. The “Test E rating (disease control)” value in data set [3] stood at 0%. The “Test B rating (disease control)” value in the data set with Alternaria solani is given as 89%.
As for `CC=C(C)C(O)c1c(-c2c(F)cccc2Cl)c(C)nn1C` (stereo not drawn) [Compound 17], in data set [1], the “Test F rating (disease control)” value came to 74%. Besides, the “Test G rating (disease control)” value in data set [2] turned out to be 78%. Moreover, the “Test C rating (disease control)” value in the data set on Septoria nodorum is given as 0%. For the same molecule, the “Test D rating (disease control)” value in the data set with Septoria tritici was found to be 72%. In addition, in data set [3], the “Test E rating (disease control)” value is reported as 9%. Besides, the “Test B rating (disease control)” value with Alternaria solani is reported as 58%.
Take `CCC=C(C)C(O)c1c(-c2c(F)cccc2F)c(C)nn1C` (stereo not drawn) [Compound 18]: the “Test F rating (disease control)” value in data set [1] amounted to 18%. The “Test G rating (disease control)” value in data set [2] was determined as 60%. For the same molecule, the “Test C rating (disease control)” value in the data set on Septoria nodorum is listed as 0%. Further, in the data set with Septoria tritici, the “Test D rating (disease control)” value was found to be 24%. The “Test E rating (disease control)” value in data set [3] came out at 9%. Moreover, the “Test B rating (disease control)” value with Alternaria solani was found to be 96%.
What is called melting point is the temperature of the solid-liquid transition. Consider `Cc1nn(C)c(N2CCC(C)CC2)c1-c1ccc(F)cc1Cl` [Compound 42, 1-[4-(2-chloro-4-fluorophenyl)-1,3-dimethyl-1H-pyrazol-5-yl]-4-methylpiperidine], for which the melting point is 98 to 100 °C. This molecule also registered a pest or weed control at 200 ppm in data set [1] of 72%. The molecule further registered a pest or weed control at 200 ppm with Botrytis cinerea (120 h) of 0%. For the same molecule, the pest or weed control at 200 ppm in data set [2] was 0%. Also, the pest or weed control at 200 ppm in the data set on Septoria nodorum was 0%. Besides, the pest or weed control at 200 ppm in the data set with Septoria tritici is 99%.
For the molecule `Cc1nn(C)c(NC(C)C)c1-c1c(F)cc(F)cc1F` [Compound 49], in data set [1], the “Test F rating (disease control)” value came to 98%. For the same molecule, in the data set on Botrytis cinerea, the “Test A rating (disease control)” value amounted to 40%. The “Test G rating (disease control)” value in data set [2] came to 0%. The “Test C rating (disease control)” value in the data set on Septoria nodorum worked out at 98%. The “Test D rating (disease control)” value with Septoria tritici came out at 0%.
With `CCN(CC)c1c(-c2c(F)cc(F)cc2F)c(C)nn1C` [Compound 50], the “Test F rating (disease control)” value in data set [1] was found to be 74%. In the data set with Botrytis cinerea, the “Test A rating (disease control)” value was determined as 38%. Besides, the “Test G rating (disease control)” value in data set [2] stood at 0%. Moreover, the “Test C rating (disease control)” value in the data set with Septoria nodorum turned out to be 0%. Besides, the “Test D rating (disease control)” value in the data set with Septoria tritici is on record as 0%.
Regarding `COCCNc1c(-c2c(F)cc(F)cc2F)c(C)nn1C` [Compound 54], the “Test F rating (disease control)” value in data set [1] amounted to 95%. For the same molecule, the “Test A rating (disease control)” value with Botrytis cinerea was found to be 0%. In addition, the “Test G rating (disease control)” value in data set [2] amounted to 0%. Also, in the data set with Septoria nodorum, the “Test C rating (disease control)” value was found to be 97%. Also, in the data set with Septoria tritici, the “Test D rating (disease control)” value is reported as 92%.
